Laboratory results as given in the NIST ThermoML archive (doi:10.1021/je400130b).
Several values for one entry are separate records, joined by “and”; a condition that tells them apart may be missing. Equal values may be shown once.

Assay: molar heat capacity at constant pressure
Settings: 101.33 kPa, Crystal, Small (less than 1 g) adiabatic calorimetry

O=S(=O)([O-])[O-].[Cu+2].[Cu+2].[Cu+2].[OH-].[OH-].[OH-].[OH-] [copper(II) tetrahydroxide sulfate]
Settings	molar heat capacity at constant pressure
4 K	4.402 J/K/mol
4.276 K	3.87 J/K/mol
4.321 K	4.927 J/K/mol
4.467 K	6.058 J/K/mol
4.5 K	6.267 J/K/mol
4.571 K	6.664 J/K/mol
4.751 K	7.35 J/K/mol
4.944 K	8.855 J/K/mol and 8.884 J/K/mol
5 K	9.138 J/K/mol
5.109 K	9.647 J/K/mol
5.218 K	10.19 J/K/mol
5.281 K	10.29 J/K/mol
5.461 K	10.03 J/K/mol
5.496 K	9.756 J/K/mol
5.659 K	8.612 J/K/mol
5.818 K	7.934 J/K/mol
5.864 K	7.741 J/K/mol
6 K	7.452 J/K/mol
6.058 K	7.363 J/K/mol
6.147 K	7.235 J/K/mol
6.298 K	7.044 J/K/mol
6.566 K	6.796 J/K/mol
6.592 K	6.689 J/K/mol
6.889 K	6.159 J/K/mol
7 K	6.491 J/K/mol
7.099 K	6.461 J/K/mol
7.18 K	6.397 J/K/mol
7.46 K	6.264 J/K/mol
7.635 K	6.223 J/K/mol
7.743 K	6.172 J/K/mol
8 K	6.095 J/K/mol
8.024 K	6.079 J/K/mol
8.159 K	6.056 J/K/mol
8.304 K	6.014 J/K/mol
8.585 K	5.956 J/K/mol
8.67 K	5.936 J/K/mol
8.866 K	5.89 J/K/mol
9 K	5.868 J/K/mol
9.144 K	5.841 J/K/mol
9.172 K	5.855 J/K/mol
9.421 K	5.784 J/K/mol
9.668 K	5.798 J/K/mol
9.696 K	5.748 J/K/mol
9.972 K	5.754 J/K/mol
10 K	5.75 J/K/mol
10.16 K	5.732 J/K/mol
10.63 K	5.745 J/K/mol
10.93 K	5.732 J/K/mol
11.68 K	5.739 J/K/mol
11.98 K	5.75 J/K/mol
12.74 K	5.81 J/K/mol
13.03 K	5.85 J/K/mol
13.78 K	5.989 J/K/mol
14.06 K	6.069 J/K/mol
14.8 K	6.285 J/K/mol
15 K	6.341 J/K/mol
15.07 K	6.393 J/K/mol
15.81 K	6.636 J/K/mol
16.07 K	6.722 J/K/mol
16.8 K	6.975 J/K/mol
17.07 K	7.117 J/K/mol
17.8 K	7.522 J/K/mol
18.06 K	7.677 J/K/mol
18.78 K	8.087 J/K/mol
19.04 K	8.238 J/K/mol
19.76 K	8.67 J/K/mol
20 K	8.85 J/K/mol
20.02 K	8.833 J/K/mol
21.22 K	9.779 J/K/mol
21.5 K	9.988 J/K/mol
23.18 K	11.26 J/K/mol
23.46 K	11.52 J/K/mol
25 K	12.91 J/K/mol
25.15 K	13.02 J/K/mol
27.12 K	14.99 J/K/mol
29.09 K	17.14 J/K/mol
30 K	18.13 J/K/mol
31.06 K	19.35 J/K/mol
33.03 K	21.62 J/K/mol
34.81 K	23.66 J/K/mol
35 K	24 J/K/mol
35.01 K	23.95 J/K/mol
36.98 K	26.35 J/K/mol
37.09 K	26.53 J/K/mol
38.96 K	28.94 J/K/mol
39.07 K	29.08 J/K/mol
40 K	30.19 J/K/mol
41.04 K	31.63 J/K/mol
43.02 K	34.11 J/K/mol
44.99 K	36.64 J/K/mol
45 K	36.59 J/K/mol
46.97 K	39.09 J/K/mol
48.95 K	41.56 J/K/mol
50 K	43.07 J/K/mol
50.93 K	44.19 J/K/mol
52.91 K	46.98 J/K/mol
54.89 K	49.62 J/K/mol
55 K	49.46 J/K/mol
56.88 K	51.68 J/K/mol
58.87 K	53.87 J/K/mol
60 K	55.63 J/K/mol
60.86 K	56.7 J/K/mol
62.84 K	59.19 J/K/mol
64.84 K	61.5 J/K/mol
65 K	61.62 J/K/mol
66.82 K	63.78 J/K/mol
68.81 K	66.04 J/K/mol
70 K	67.43 J/K/mol
70.81 K	68.24 J/K/mol
73.31 K	71.15 J/K/mol
75 K	73.06 J/K/mol
76.31 K	74.53 J/K/mol
79.15 K	77.5 J/K/mol
79.33 K	77.85 J/K/mol
80 K	78.53 J/K/mol
82.35 K	81.16 J/K/mol
82.87 K	81.56 J/K/mol
85 K	83.89 J/K/mol
85.92 K	84.81 J/K/mol
87.61 K	86.67 J/K/mol
88.97 K	88.01 J/K/mol
90 K	89.13 J/K/mol
91.38 K	90.45 J/K/mol
92.02 K	91.18 J/K/mol
94.44 K	93.68 J/K/mol
95 K	94.27 J/K/mol
95.08 K	94.4 J/K/mol
97.53 K	96.77 J/K/mol
98.16 K	97.48 J/K/mol
100 K	99.3 J/K/mol
100.62 K	99.85 J/K/mol
101.24 K	100.56 J/K/mol
103.71 K	102.89 J/K/mol
104.33 K	103.67 J/K/mol
106.81 K	105.92 J/K/mol
107.42 K	106.61 J/K/mol
109.92 K	109.04 J/K/mol
110 K	109.1 J/K/mol
110.53 K	109.61 J/K/mol
113.05 K	112.01 J/K/mol
113.64 K	112.58 J/K/mol
116.17 K	114.94 J/K/mol
116.76 K	115.5 J/K/mol
119.31 K	118.07 J/K/mol
119.89 K	118.47 J/K/mol
120 K	118.6 J/K/mol
122.46 K	120.84 J/K/mol
123.02 K	121.58 J/K/mol
125.61 K	123.78 J/K/mol
126.17 K	124.44 J/K/mol
128.76 K	126.79 J/K/mol
129.34 K	127.55 J/K/mol
130 K	128.1 J/K/mol
131.93 K	129.76 J/K/mol
132.5 K	130.3 J/K/mol
135.11 K	132.59 J/K/mol
135.67 K	133.23 J/K/mol
138.3 K	135.82 J/K/mol
138.84 K	136.39 J/K/mol
140 K	137.4 J/K/mol
141.49 K	138.48 J/K/mol
142.03 K	139.28 J/K/mol
144.68 K	141.3 J/K/mol
145.22 K	142.14 J/K/mol
147.87 K	144.34 J/K/mol
148.42 K	144.91 J/K/mol
150 K	146.3 J/K/mol
151.08 K	147.15 J/K/mol
151.63 K	147.79 J/K/mol
153.75 K	149.17 J/K/mol
154.85 K	150.6 J/K/mol
155.89 K	151.01 J/K/mol
158.03 K	152.89 J/K/mol
158.08 K	153.14 J/K/mol
160 K	154.8 J/K/mol
160.17 K	154.93 J/K/mol
161.31 K	155.76 J/K/mol
162.32 K	156.42 J/K/mol
164.47 K	158.12 J/K/mol
164.54 K	158.38 J/K/mol
166.62 K	159.83 J/K/mol
167.79 K	161.29 J/K/mol
168.77 K	161.72 J/K/mol
170 K	162.9 J/K/mol
170.92 K	163.42 J/K/mol
171.04 K	163.63 J/K/mol
173.08 K	165.15 J/K/mol
174.3 K	166.52 J/K/mol
175.23 K	166.71 J/K/mol
177.4 K	168.6 J/K/mol
177.57 K	168.98 J/K/mol
179.56 K	169.93 J/K/mol
180 K	170.9 J/K/mol
180.86 K	171.6 J/K/mol
181.72 K	171.53 J/K/mol
183.88 K	173.5 J/K/mol
184.14 K	174.07 J/K/mol
186.04 K	174.91 J/K/mol
187.43 K	176.58 J/K/mol
188.2 K	176.89 J/K/mol
190 K	178.5 J/K/mol
190.37 K	178.59 J/K/mol
190.73 K	179 J/K/mol
192.53 K	179.84 J/K/mol
194.03 K	181.5 J/K/mol
194.69 K	181.95 J/K/mol
196.86 K	183.62 J/K/mol
197.33 K	184.05 J/K/mol
199.04 K	185.07 J/K/mol
200 K	185.9 J/K/mol
200.64 K	186.38 J/K/mol
201.21 K	186.11 J/K/mol
203.39 K	188.25 J/K/mol
203.96 K	188.7 J/K/mol
205.57 K	189.66 J/K/mol
207.29 K	191 J/K/mol
207.76 K	190.53 J/K/mol
209.94 K	192.52 J/K/mol
210 K	192.8 J/K/mol
210.62 K	193.2 J/K/mol
212.16 K	193.78 J/K/mol
213.96 K	195.29 J/K/mol
214.35 K	195.47 J/K/mol
216.54 K	197.08 J/K/mol
217.3 K	197.61 J/K/mol
218.74 K	198.53 J/K/mol
220 K	199.5 J/K/mol
220.63 K	199.85 J/K/mol
220.93 K	199.41 J/K/mol
223.12 K	200.77 J/K/mol
223.97 K	202.1 J/K/mol
225.3 K	202.74 J/K/mol
227.29 K	204.34 J/K/mol
227.48 K	203.96 J/K/mol
229.65 K	205.76 J/K/mol
230 K	206.1 J/K/mol
230.62 K	206.56 J/K/mol
231.82 K	207.32 J/K/mol
233.94 K	208.88 J/K/mol
233.99 K	208.88 J/K/mol
236.16 K	210.12 J/K/mol
237.24 K	210.9 J/K/mol
238.32 K	211.49 J/K/mol
240 K	212.7 J/K/mol
240.47 K	213.05 J/K/mol
240.54 K	213.1 J/K/mol
242.63 K	214.29 J/K/mol
243.84 K	215.04 J/K/mol
244.78 K	215.47 J/K/mol
246.91 K	216.48 J/K/mol
247.12 K	217.09 J/K/mol
249.05 K	217.96 J/K/mol
250 K	218.9 J/K/mol
250.39 K	219.06 J/K/mol
251.18 K	219.63 J/K/mol
253.31 K	221.05 J/K/mol
253.64 K	221.26 J/K/mol
255.43 K	222.37 J/K/mol
256.89 K	223.31 J/K/mol
257.55 K	223.64 J/K/mol
259.67 K	224.86 J/K/mol
260 K	225.1 J/K/mol
260.12 K	225.23 J/K/mol
261.78 K	226.04 J/K/mol
263.34 K	227.07 J/K/mol
263.89 K	227.38 J/K/mol
265.99 K	228.04 J/K/mol
266.52 K	229.07 J/K/mol
268.1 K	229.52 J/K/mol
269.68 K	230.88 J/K/mol
270 K	231.1 J/K/mol
270.18 K	231.01 J/K/mol
272.26 K	232.16 J/K/mol
272.81 K	232.32 J/K/mol
273.15 K	232.9 J/K/mol
274.34 K	233.42 J/K/mol
275.92 K	234.35 J/K/mol
276.41 K	234 J/K/mol
278.48 K	235.58 J/K/mol
278.99 K	236.21 J/K/mol
280 K	236.7 J/K/mol
280.47 K	237.16 J/K/mol
282.03 K	237.88 J/K/mol
282.51 K	238.07 J/K/mol
284.55 K	239.1 J/K/mol
284.97 K	239.95 J/K/mol
286.57 K	240.28 J/K/mol
287.96 K	241.21 J/K/mol
288.59 K	241.63 J/K/mol
290 K	242.2 J/K/mol
290.6 K	242.66 J/K/mol
290.92 K	242.32 J/K/mol
292.61 K	243.54 J/K/mol
293.88 K	243.77 J/K/mol
294.6 K	244.61 J/K/mol
296.58 K	245.63 J/K/mol
296.81 K	245.8 J/K/mol
298.15 K	246.6 J/K/mol
298.56 K	246.66 J/K/mol
299.68 K	247.51 J/K/mol
300 K	247.6 J/K/mol
300.53 K	247.64 J/K/mol
302.49 K	248.72 J/K/mol
302.54 K	249.04 J/K/mol
304.44 K	249.67 J/K/mol
305.37 K	250.52 J/K/mol
306.39 K	250.6 J/K/mol
308.18 K	251.84 J/K/mol
308.34 K	251.49 J/K/mol
310 K	252.8 J/K/mol
310.27 K	252.37 J/K/mol
310.97 K	253.24 J/K/mol
312.09 K	253.75 J/K/mol
313.74 K	254.51 J/K/mol
314.01 K	254.23 J/K/mol
315.94 K	255.03 J/K/mol
316.5 K	255.82 J/K/mol
317.86 K	255.92 J/K/mol
319.23 K	257.03 J/K/mol
319.77 K	256.66 J/K/mol
320 K	257.4 J/K/mol
321.68 K	257.57 J/K/mol
321.95 K	258.16 J/K/mol
323.58 K	258.37 J/K/mol
